Experimental data published in article PMC10411625, “Rationally designed stapled peptides allosterically inhibit PTBP1–RNA-binding” (Chemical Science, 2023).
Like-named read-outs stand apart in the source and are kept apart here.

Target: T1, PTBP1 RRM12 (Homo sapiens, UniProt P26599)
T1 construct: (P57-V265); MBP (from pMAL vector); His tag; made in house; host or cells: E. coli BL21 DE3 RIL
T1 sequence (P26599 57-265): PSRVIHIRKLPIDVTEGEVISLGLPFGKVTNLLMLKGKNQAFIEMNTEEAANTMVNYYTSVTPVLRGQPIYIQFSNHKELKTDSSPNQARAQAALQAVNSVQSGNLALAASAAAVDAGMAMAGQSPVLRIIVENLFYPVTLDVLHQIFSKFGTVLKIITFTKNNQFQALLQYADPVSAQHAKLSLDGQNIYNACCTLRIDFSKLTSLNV
Assay: Competitive fluorescence polarization assay between RRM12 and RNA-2
Format: binding
Text: For the initial design we used the i, i + 4 strategy where two (S)-pentenyl alanines (S5) were introduced in positions with three other amino acids in between. We picked three different amino acid pairs to replace with the S5 amino acids based on their orientation as observed in the NMR structures (P-2, P-3 and P-4, Fig. 2B and C).[25] To prevent the staple from disturbing the interaction between the ligand and the protein we chose positions facing away from the binding site forming the pairs Ala145/Ala149, Gln148/Gln152, and Ala149/Ala153. The three peptides were synthesized on Rink amide resin and the linear peptides were treated with a Grubbs catalyst to connect the S5 residues. To avoid a mixture of E/Z-diastereomers we reduced the alkene in the linker of the staple using a solution phase hydrogenation protocol.[43] The linear equivalent P-1 was synthesized for comparison but had to be extended on the C-terminus with an arginine residue to improve its solubility. The C-terminus is away from the binding surface and this modification was therefore not expected to have an impact on the binding affinity. The peptides were tested in a competitive fluorescence polarization assay using the RRM12 construct and RNA-2 (Fig. 2C and S2 ^†). […] As the staple is expected to stabilize the α-helical conformation we used circular dichroism (CD) spectroscopy to evaluate the helicity of the peptides. […] It is possible that although P-4 was more helical than P-3, the replacement of Gln148 with the hydrophobic linker disturbed the interaction since the side chain amide potentially interacts with the RRM1 surface. […]
size exclusion chromatography (Superdex 75 16/60 or 26/60) with SEC buffer (50 mM Tris, 200 mM NaCl). Protein homogeneity was assessed by the size exclusion chromatogram and purity was checked by SDS-PAGE analysis to be >= 90%.
The gene encoding for SRSF1-RRM12 (1-195) was subcloned into pOPIN-His expression vector and expressed in E. coli BL21 (DE3). A pre-culture of transformed bacteria was made followed by expression in LB-Medium (100 µg/ml Ampicillin, 1 mM IPTG, 18 °C, 160 rpm overnight) after growing the culture at 37 °C, 160 rpm to an OD600 of 0.6. The harvested cells (5000 x g, 4 °C, 15 min) were resuspended in Buffer ASRSF1 (50 mM Na2HPO4 pH 8.0, 300 mM KCl, 50 mM L-Arg, 50 mM L-Gly, 1.5 mM MgCl2) supplemented with 1 mM PMSF followed by lysis through sonification. The protein was purified using a HisTrap HP 5 ml column (GE-Healthcare) using a gradient of Buffer BSRSF1 (50 mM Na2HPO4 pH 8.0, 300 mM KCl, 50 mM L-Arg, 50 mM L-Gly, 1.5 mM MgCl2, 500 mM Imidazole) followed by dialysis into wash buffer (50 mM Na2HPO4 pH 8.0, 300 mM KCl, 50 mM L-Arg, 50 mM L-Gly, 1.5 mM MgCl2, 40 mM Imidazole) and a second run of the affinity column. The protein containing fractions were afterwards dialyzed into wash buffer with tag-cleavage using His-tagged 3C protease. The cleaved construct was subsequently used for a third affinity column run collecting the unbound fraction which was dialyzed into storage buffer (20 mM Na2HPO4 pH 8.0, 150 mM KCl, 50 mM L-Arg, 50 mM L-Gly, 1.5 mM MgCl2, 0.2 mM EDTA, 1 mM TCEP).
Purification of hnRNP A2/B1
The MBP-tagged hnRNP A2/B1 construct (1-251) was expressed from a pOPIN-His-MBP vector in E. coli BL21 (DE3) RIPL cells. A pre-culture in TB (0.01% lactose, 2mM MgSO4, 100 µg/ml ampicillin, 50 µg/ml chloramphenicol) was used to inoculate the expression culture with a starting OD600 of 0.05 at 37 °C. Expression was autoinduced at 37 °C for 4 h followed by expression over night at 25 °C. Harvested cells (5000 x g, 15 min, 4 °C) were resuspended in Buffer AhnRNPA2/B1 (50 mM HEPES pH 8.0, 300 mM NACl, 20 mM Imidazole, 1 mM TCEP) supplemented with 1 mM PMSF) and lysed with a microfluidizer.
Immobilized metal affinity chromatography was performed using a HisTrap FF crude 5 ml column. The loaded protein was washed with wash buffer (50 mM HEPES pH 8.0, 300 mM NaCl, 30 mM Imidazole, […]

[1] = Fig. 2C, 5 nM FAM-RNA-2, protein at 50-70 % probe binding, FP buffer pH 8.0, 20 °C, 30 min, n.b. given for inactive peptides, read-out: Ki, competitive FP assay between RRM12 and RNA-2

Row | Compound | Ki [1] [µM] | Ki (Fig. 3C experiment, competitive FP with RNA-2, read-out: P-6 Ki, construct RRM12) [µM]
1 | CC(=O)N[C@@H](CC(N)=O)C(=O)N[C@@H](CCC(N)=O)C(=O)N[C@@]1(C)CCCC=CCCCC2(CCCC=CCCC[C@](C)(C(=O)N[C@H](C(=O)N[C@@H](CC(N)=O)C(N)=O)C(C)C)NC(=O)[C@H](CCC(N)=O)NC(=O)[C@H](CC(C)C)NC(=O)[C@H](C)NC2=O)NC(=O)[C@H](CCC(N)=O)NC(=O)[C@H](C)NC(=O)[C@H](CCCNC(=N)N)NC1=O (stereo partly drawn) [Peptide P-6] | 9.3 | 8 ± 7.1
2 | CC(=O)N[C@@H](CC(N)=O)C(=O)N[C@@H](CCC(N)=O)C(=O)N[C@@]1(C)CCCCCCCC[C@@](C)(C(=O)N[C@@H](C)C(=O)N[C@@H](CC(C)C)C(=O)N[C@@H](CCC(N)=O)C(=O)N[C@@H](C)C(=O)N[C@H](C(=O)N[C@@H](CC(N)=O)C(N)=O)C(C)C)NC(=O)[C@H](CCC(N)=O)NC(=O)[C@H](C)NC(=O)[C@H](CCCNC(=N)N)NC1=O [Peptide P-2] | 11.6 | –
